Laboratory results taken from patent US4783410A (priority 1985, dated 1988).
Entries after “also recorded” stand apart in the source; their conditions may differ.

Key:
[1] = molecular target: CTL serine esterase (G4 extract) (Mus musculus, UniProt P11032); experiment: biochemical; format: biochemical, murine
[2] = tested on: specific target cell lysis of P815 cells by CTL clone G4; format: cell-based, murine
[3] = tested on: G4 cells
[4] = tested on: specific target cell lysis of P815 cells by CTL clone G4; settings: cited from earlier work

Sequence of CTL serine esterase (G4 extract) (P11032 29-260): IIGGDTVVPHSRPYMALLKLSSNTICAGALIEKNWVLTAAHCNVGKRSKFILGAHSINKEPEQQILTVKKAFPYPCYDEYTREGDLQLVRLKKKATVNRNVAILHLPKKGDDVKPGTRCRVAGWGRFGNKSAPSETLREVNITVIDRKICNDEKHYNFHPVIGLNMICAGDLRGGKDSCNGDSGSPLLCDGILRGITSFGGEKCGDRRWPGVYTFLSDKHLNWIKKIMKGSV

Structure (SMILES)	Inhibition of CTL esterase activity (in words) [1]	Inhibition of lysis of P815 cells by cloned anti-D^d G4 cells [2]	Toxicity to G4 cells by 51Cr release or reduced recovery of viable (trypan blue-negative) cells [3]	inhibition at 500 µM ([1]; read-out: Percent Inhibition of esterase activity)	Block of CTL cytotoxicity [4]
O=S(=O)(F)Cc1ccccc1 [PMSF, phenylmethylsulfonyl fluoride]	blocked completely; also recorded: completely inhibitable	clearly inhibits lysis	no additive toxicity	–	–
Cc1ccc(S(=O)(=O)NC(CCCCN)C(=O)CCl)cc1 (stereo not drawn) [TLCK, N^alpha -tosyl lysyl chloromethyl ketone]	not, however, inhibited	–	–	4.6%	known to block CTL cytotoxicity
